Structures are written as SMILES.

From ChEMBL document CHEMBL3045033, “Synthesis of new potential anticancer agents based on 4-thiazolidinone and oleanane scaffolds” (Med Chem Res, 2012) come the findings set out here.

One data set has as its system MOLT-4. The data set can be described thus: Cytotoxicity against Homo sapiens (human) MOLT4 cells after 48 hr by SRB assay. As to conditions: MOLT-4, 48 h. Format: functional.
A further data set concerns OVCAR-4. The data set can be described thus: Cytotoxicity against Homo sapiens (human) OVCAR4 cells after 48 hr by SRB assay. The class given is functional. As to conditions: OVCAR-4, 48 h. A general note: In SRB staining, fixed cells bind dye roughly in proportion to their protein.
Another data set deals with A549. The data set can be described thus: Cytotoxicity against Homo sapiens (human) A549 cells assessed as cellular growth at 10^-5 M after 48 hr by SRB assay relative to untreated control. Format: functional.
The test system of a further data set is U-251. The data set can be described thus: Cytotoxicity against Homo sapiens (human) U251 cells assessed as cellular growth at 10^-5 M after 48 hr by SRB assay relative to untreated control. The class given is functional.
The next data set deals with OVCAR-8. The data set can be described thus: Cytotoxicity against Homo sapiens (human) OVCAR8 cells assessed as cellular growth at 10^-5 M after 48 hr by SRB assay relative to untreated control. The class given is functional.
For data set [1], the system named is HCT-116. The data set can be described thus: Cytotoxicity against Homo sapiens (human) HCT116 cells after 48 hr by SRB assay. Format: functional. As to conditions: HCT-116, 48 h.
In a further data set the test system is NCI-H522. The data set can be described thus: Cytotoxicity against Homo sapiens (human) NCI-H522 cells assessed as cellular growth at 10^-5 M after 48 hr by SRB assay relative to untreated control. The class given is functional.
Another data set has as its system HCC 2998. The data set can be described thus: Cytotoxicity against Homo sapiens (human) HCC2998 cells after 48 hr by SRB assay. The class given is functional. The conditions noted are these: HCC 2998, 48 h.
Data set [2] concerns MCF7. The data set can be described thus: Cytotoxicity against Homo sapiens (human) MCF7 cells after 48 hr by SRB assay. Format: functional. The conditions noted are these: MCF7, 48 h.
Data set [3] concerns HCT-116. The data set can be described thus: Cytotoxicity against Homo sapiens (human) HCT116 cells assessed as cellular growth at 10^-5 M after 48 hr by SRB assay relative to untreated control. The class given is functional.
The test system of a further data set is NCI-H460. The data set can be described thus: Cytotoxicity against Homo sapiens (human) NCI-H460 cells assessed as cellular growth at 10^-5 M after 48 hr by SRB assay relative to untreated control. Format: functional.
In data set [4] the test system is MCF7. The data set can be described thus: Cytotoxicity against Homo sapiens (human) MCF7 cells assessed as cellular growth at 10^-5 M after 48 hr by SRB assay relative to untreated control. Format: functional.
The next data set deals with CAKI-1. The data set can be described thus: Cytotoxicity against Homo sapiens (human) Caki1 cells after 48 hr by SRB assay. Format: functional. As to conditions: CAKI-1, 48 h.
In the next data set the test system is A498. The data set can be described thus: Cytotoxicity against Homo sapiens (human) A498 cells assessed as cellular growth at 10^-5 M after 48 hr by SRB assay relative to untreated control. The class given is functional.
In another data set the test system is RPMI-8226. The data set can be described thus: Cytotoxicity against Homo sapiens (human) RPMI8226 cells assessed as cellular growth at 10^-5 M after 48 hr by SRB assay relative to untreated control. Format: functional.
The test system of data set [5] is MDA-MB-468. The data set can be described thus: Cytotoxicity against Homo sapiens (human) MDA-MB-468 cells after 48 hr by SRB assay. The conditions noted are these: MDA-MB-468, 48 h, read-out: pLC50 (the source's name) (converted). The class given is functional.
Another data set deals with TK-10. The data set can be described thus: Cytotoxicity against Homo sapiens (human) TK10 cells assessed as cellular growth at 10^-5 M after 48 hr by SRB assay relative to untreated control. The class given is functional.
A further data set concerns Hs-578T. The data set can be described thus: Cytotoxicity against Homo sapiens (human) Hs578T cells assessed as cellular growth at 10^-5 M after 48 hr by SRB assay relative to untreated control. The class given is functional.
The next data set relates to SF-295. The data set can be described thus: Cytotoxicity against Homo sapiens (human) SF295 cells assessed as cellular growth at 10^-5 M after 48 hr by SRB assay relative to untreated control. Format: functional.
A further data set deals with HL-60(TB). The data set can be described thus: Cytotoxicity against Homo sapiens (human) HL-60(TB) cells assessed as cellular growth at 10^-5 M after 48 hr by SRB assay relative to untreated control. Format: functional.
Data set [6] deals with MDA-MB-468. The data set can be described thus: Cytotoxicity against Homo sapiens (human) MDA-MB-468 cells at 10^-4 to 10^-8 M after 48 hr by SRB assay. Format: functional. As to conditions: MDA-MB-468, 48 h, read-out: pTGI (converted).
The next data set relates to T47D. The data set can be described thus: Cytotoxicity against Homo sapiens (human) T47D cells assessed as cellular growth at 10^-5 M after 48 hr by SRB assay relative to untreated control. Format: functional.
The subject of a further data set is CCRF-CEM. The data set can be described thus: Cytotoxicity against Homo sapiens (human) CCRF-CEM cells assessed as cellular growth at 10^-5 M after 48 hr by SRB assay relative to untreated control. Format: functional.
Data set [7] can be described thus: Toxicity in mouse. Format: organism-based. As to conditions: in vivo.

As for `COC(=O)[C@]12CCC(C)(C)C[C@H]1C1=CC[C@@H]3[C@@]4(C)CC/C(=N\O)C(C)(C)[C@@H]4CC[C@@]3(C)[C@]1(C)CC2`, the GI50 (as a rule, the concentration giving 50% growth inhibition) in the data set on MOLT-4 was 37.2 µM; with OVCAR-4 it was 30.2 µM; in the data set on HCT-116 [1], 29.5 µM; with HCC 2998, 22.9 µM; with MCF7 [2] it was 20.4 µM; with CAKI-1, 19.5 µM. In addition, the Activity in the data set on A549 is reported as -41.06%; in the data set on U-251, 33.89%; with OVCAR-8 it was 11.3%; in the data set on NCI-H522, 23.74%; in the data set on HCT-116 [3], 3.39%; in the data set with NCI-H460 it was 44.14%. Besides, the Activity in the data set with MCF7 [4] was 26.08%.

For `CC1(C)CC[C@@]23CC[C@]4(C)[C@@](OC2=O)([C@@H]3C1)[C@@H](Br)C[C@@H]1[C@@]2(C)CC/C(=N\O)C(C)(C)[C@@H]2CC[C@]14C`, the Activity with A498 turned out to be 150.51%; in the data set on RPMI-8226, 38.33%; in the data set with TK-10 it was 31.05%; in the data set with Hs-578T, 258.88%; in the data set with SF-295 it was 19.14%. The GI50 in the data set with MOLT-4 was 14.1 µM; in the data set on OVCAR-4, 11.5 µM; in the data set on HCT-116 [1], 19.1 µM; in the data set with HCC 2998, 81.3 µM; in the data set on MCF7 [2], 11.7 µM; with CAKI-1 it was 28.2 µM. In addition, the CC50 in the data set on MDA-MB-468 [5] was over 100 µM.

As for `COC(=O)[C@]12CCC(C)(C)C[C@H]1C1=CC[C@@H]3[C@@]4(C)CC/C(=N\OC(=O)/C=C5/SC(=O)NC5=O)C(C)(C)[C@@H]4CC[C@@]3(C)[C@]1(C)CC2`, the Activity was 16.33% in the data set on RPMI-8226, -46.91% with HL-60(TB), 9.18% in the data set on T47D and -24.8% in the data set on CCRF-CEM. Besides, in the data set on MDA-MB-468 [6], the TGI was 6.61 µM. The compound also registered an MTD in data set [7] of over 400 mg/kg.
